This note sets out measurements from patent US5256686A, “Phenylalkan(en)oic acid” (Ono Pharmaceutical Co., Ltd., priority 1989, dated 1993).

Broadly, the IC50 is the concentration needed to halve the response being measured. Read a low IC50 as greater potency in that assay. As usually defined, the LD50 is the dose at which mortality reaches 50%. Low values mean greater toxicity, high ones lower toxicity.

The target of one series is T1, human PMNL LTB4 receptor (Homo sapiens, UniProt Q15722).
T1 construct: endogenous in cells; host or cells: human polymorphonuclear leukocytes (PMNL), intact cells
Nature of the series: Binding affinity of 3H-LTB4 antagonist to human PMNL LTB4 receptor (inhibition of specific 3H-LTB4 binding). The settings on record: 1 nM 3H-LTB4, human PMNLs, 4° C., 20 min. As for the experimental part: Human PMNLS (1×10^7 cells) were incubated with 1 nM ^3 H-LTB4 in Hanks balanced salt solution (1 ml) at 4° C. for 20 min. in the presence or absence of increasing concentrations of unlabeled LTB4 or various compounds. Free ^3 H-LTB4 was separated from PMNLs-bound ligands by vacuum filteration through Whatman GF/B or C glass fiber filters. The filters were then washed rapidly 4 times with 2.5 ml of the ice-cold phosphate buffered saline. The radioactivity retained in the filter was determined by liquid scintillation counting. Specific binding was defined as the difference between total binding and binding in the presence of 3 μM LTB4 (nonspecific binding). The inhibitory effect of specific ^3 H-LTB4 binding was calculated from the following equation.
The percentage of inhibition (%)=100-(B1 /B0 ×100)
B1 : specific ^3 H-LTB4 binding in presence of antagonist
B0 : specific ^3 H-LTB4 binding in absence of antagonist

The next series concerns Human PMNLs. Nature of the series: Inhibition of human PMNLs aggregation (LTB4-induced). To be noted: PMNL, LTB4 10^-8 M solution, 3 min preincubation at 37° C., pH 7.4. It is filed as cell-based. The method, then: ii) Inhibition of Human PMNLs aggregation
The purified human PMNLs were suspended in Hank's-0.5% BSA medium (pH 7.4) at 1×10^7 cells/ml. The PMNLs suspentions (200 μl) were preincubated with varying concentrations of tasted compounds for 3 min at 37° C. prior to the addition of 10^-8 M solution ([…]) of LTB4 in Hank's solution. PMNLs aggregation in vitro was performed with a multichannel platelet aggregometer. Aggregation was detected as change in light transmission with an aggregometer.

Series [1] in a line: Acute toxicity (LD50) in mouse. To be noted: in vivo. An excerpt: It was confirmed that the toxicity of the compounds, of the present invention were very low. […] Accordingly, it was confirmed that the compounds of the present invention were useful for pharmaceutical agent.

T1 sequence (Q15722 whole entry): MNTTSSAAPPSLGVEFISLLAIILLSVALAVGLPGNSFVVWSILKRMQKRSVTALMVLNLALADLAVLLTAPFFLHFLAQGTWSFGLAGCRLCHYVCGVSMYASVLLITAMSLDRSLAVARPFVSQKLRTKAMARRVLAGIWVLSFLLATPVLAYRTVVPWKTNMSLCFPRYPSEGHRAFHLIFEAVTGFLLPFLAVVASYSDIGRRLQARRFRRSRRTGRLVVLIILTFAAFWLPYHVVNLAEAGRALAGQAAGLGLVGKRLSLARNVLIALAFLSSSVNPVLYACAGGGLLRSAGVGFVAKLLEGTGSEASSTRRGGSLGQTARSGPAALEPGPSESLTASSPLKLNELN

In the case of `COc1ccc(/C=C/CCCCOc2cccc(OCCCCN3CCCC3=O)c2CCC(=O)O)cc1` [30 (a), 3-[1-[6-(4-methoxyphenyl)hex-5E-enyl]oxy-3-[4-(2-pyrrolidon-1-yl)-n-butoxy]benzen-2-yl]propionic acid], the IC50 was determined as 70 nM on human PMNL LTB4 receptor and 1100 nM in the series on Human PMNLs.

With `COc1ccc(/C=C/CCCCOc2cccc(NC(=O)CCCC(=O)N(C)C)c2CCC(=O)O)cc1` [Example 32, 3-[1-[6-(4-methoxyphenyl)hex-5E-enyl]oxy-3-(4-dimethylaminocarbonylbutanamido)benzen-2-yl]propionic acid], the IC50 at human PMNL LTB4 receptor was found to be 50 nM; in the series on Human PMNLs it was 5400 nM.

Turning to `COc1ccc(/C=C/CCCCOc2cccc(CCCCCC(=O)N(C)C)c2CCC(=O)O)cc1` [Example 34, 3-[1-[6-(4-methoxyphenyl)hex-5E-enyl]oxy-3-(5-dimethylaminocarbonylpentyl)benzen-2-yl]propionic acid], the IC50 on human PMNL LTB4 receptor came out at 20 nM; in the series with Human PMNLs, 810 nM.

`COc1ccc(/C=C/CCCCOc2cccc(OCCCCC(=O)O)c2CCC(=O)O)cc1` [31 (a), 3-[1-[6-(4-methoxyphenyl)hex-5E-enyl]oxy-3-(4-carboxylbutyl)oxybenzen-2-yl]propionic acid]: the LD50 in series [1] (intravenous administration) was found to be 260 mg/kg; in series [1] (oral administration), 2200 mg/kg. Moreover, the IC50 in the series on Human PMNLs was 1900 nM.

With `COc1ccc(/C=C/CCCCOc2ccc(NC(=O)CCCC(=O)N(C)C)cc2CCC(=O)O)cc1` [1 (a), 3-[1-[6-(4-methoxyphenyl)hex-5E-enyl]oxy-4-(4-dimethylaminocarbonylbutanamido)benzen-2-yl]propionic acid], the IC50 at human PMNL LTB4 receptor came to 45 nM; with Human PMNLs it was 3600 nM.

Consider `COc1ccc(/C=C/CCCCOc2cccc(C(O)CCCCC(=O)O)c2CCC(=O)O)cc1` (centres unmarked) [Example 38, 3-[1-[6-(4-methoxyphenyl)hex-5E-enyl]oxy-3-(1-hydroxy-5-carboxylpentyl)benzen-2-yl]propionic acid], for which the IC50 at human PMNL LTB4 receptor amounted to 120 nM; in the series on Human PMNLs, 4900 nM.

Turning to `COc1ccc(/C=C/CCCCOc2ccc(NC(=O)CCCC(=O)Nc3nccs3)cc2CCC(=O)O)cc1` [1 (o), 3-[1-[6-(4-methoxyphenyl)hex-5E-enyl]oxy-4-[4-(2-thiazolyl)aminocarbonylbutanamido]benzen-2-yl]propionic acid], the IC50 stood at 20 nM on human PMNL LTB4 receptor and 3000 nM in the series on Human PMNLs.

On to `COc1ccc(/C=C/CCCCOc2ccc(OCCCCC(=O)N(C)C)cc2CCC(=O)O)cc1` [Example 16, 3-[1-[6-(4-methoxyphenyl)hex-5E-enyl]oxy-4-(4-dimethylaminocarbonyl-n-butyl)oxybenzen-2-yl]propionic acid], for which the values for the IC50 on human PMNL LTB4 receptor and in the series with Human PMNLs were 90 nM and 7000 nM, respectively.

Take `COc1ccc(/C=C/CCCCOc2cccc(C(=O)CCCCC(=O)O)c2CCC(=O)O)cc1` [Example 37, 3-[1-[6-(4-methoxyphenyl)hex-5E-enyl]oxy-3-(1-oxo-5-carboxylpentyl)benzen-2-yl]propionic acid]: the IC50 was 6 nM at human PMNL LTB4 receptor and 1700 nM with Human PMNLs.

On to `COc1ccc(/C=C/CCCCOc2cccc(OCCCC(=O)O)c2CCC(=O)O)cc1` [Example 31, 3-[1-[6-(4-methoxyphenyl)hex-5E-enyl]oxy-3-(3-carboxylpropyl)oxybenzen-2-yl]propionic acid], for which the IC50 at human PMNL LTB4 receptor was 40 nM; in the series on Human PMNLs, 6000 nM.

In the case of `COc1ccc(/C=C/CCCCOc2cccc(OCCCCC(=O)N(C)C)c2CCC(=O)O)cc1` [Example 30, 3-[1-[6-(4-methoxyphenyl)hex-5E-enyl]oxy-3-(4-dimethylaminocarbonylbutyl)oxybenzen-2-yl]propionic acid], the LD50 in series [1] (intravenous administration) came out at 175 mg/kg; in series [1] (oral administration), 3900 mg/kg. Besides, the IC50 turned out to be 16 nM at human PMNL LTB4 receptor and 840 nM in the series with Human PMNLs.

Take `COc1ccc(/C=C/CCCCOc2ccc(NS(C)(=O)=O)cc2CCC(=O)O)cc1` [6 (b), 3-[1-[6-(4-methoxyphenyl)hex-5E-enyl]oxy-4-methylsulfonylaminobenzen-2-yl]propionic acid]: at human PMNL LTB4 receptor, the IC50 stood at 30 nM.

The compound `COc1ccc(/C=C/CCCCOc2ccc(NC(=O)CCCC(=O)N3CCc4ccccc43)cc2CCC(=O)O)cc1` [1 (n), 3-[1-[6-(4-methoxyphenyl)hex-5E-enyl]oxy-4-[4-(1-indolinyl)carbonylbutanamido]benzen-2-yl]propionic acid] gave an IC50 at human PMNL LTB4 receptor of 70 nM.

`COc1ccc(/C=C/CCCCOc2ccc(NC(=O)c3cccc(CO)c3)cc2CCC(=O)O)cc1` [4 (b), 3-[1-[6-(4-methoxyphenyl)hex-5E-enyl]oxy-4-(3-hydroxymethylbenzamido)benzen-2yl]propionic acid] showed an IC50 on human PMNL LTB4 receptor of 60 nM.

As to `COc1ccc(/C=C/CCCCOc2cccc(C(O)CCCCC(=O)N(C)C)c2CCC(=O)O)cc1` (centres unmarked) [Example 40, 3-[1-[6-(4-methoxyphenyl)hex-5E-enyl]oxy-3-(1-hydroxy-5-dimethylaminocarbonylpentyl)benzen-2-yl]propionic acid], the IC50 on human PMNL LTB4 receptor amounted to 170 nM.

The compound `COc1ccc(/C=C/CCCCOc2ccc(NC(=O)CCCC(=O)O)cc2/C=C/C(=O)O)cc1` [2 (a), 3-[1-[6-(4-methoxyphenyl)hex-5E-enyl]oxy-4-(4-carboxylbutanamido)benzen-2-yl]-E-acrylic acid] displayed an IC50 at human PMNL LTB4 receptor of 200 nM.

Take `COc1ccc(/C=C/CCCCOc2ccc(C(O)CCCC(=O)N(C)C)cc2CCC(=O)O)cc1` (centres unmarked) [Example 20, 3-[1-[6-(4-methoxyphenyl)hex-5E-enyl]oxy-4-(1-hydroxy-4-dimethylaminocarbonylbutyl)benzen-2-yl]propionic acid]: the values for the IC50 at human PMNL LTB4 receptor and in the series on Human PMNLs were 3.6 nM and 2000 nM, respectively.

In the case of `COc1ccc(/C=C/CCCCOc2ccc(NC(=O)c3ccccc3)cc2CCC(=O)O)cc1` [3 (a), 3-[1-[6-(4-methxoyphenyl)hex-5E-enyl]oxy-4-benzamidobenzen-2-yl]propionic acid], the IC50 on human PMNL LTB4 receptor was 200 nM.

Consider `COc1ccc(/C=C/CCCCOc2cccc(CCCCCC(=O)O)c2CCC(=O)O)cc1` [Example 33, 3-[1-[6-(4-methoxyphenyl)hex-5E-enyl]oxy-3-(5-carboxylpentyl)benzen-2-yl]propionic acid], for which the IC50 on human PMNL LTB4 receptor was found to be 15 nM.

On human PMNL LTB4 receptor, `COc1ccc(/C=C/CCCCOc2ccc(C(=O)CCCC(=O)N(C)C)cc2CCC(=O)O)cc1` [Example 19, 3-[1-[6-(4-methoxyphenyl)hex-5E-enyl]oxy-4-(1-oxo-4-dimethylaminocarbonylbutyl)benzen-2-yl]propionic acid] showed an IC50 of 30 nM.

`COc1ccc(CCCCCCOc2ccc(NC(=O)CCCC(=O)N(C)C)cc2CCC(=O)O)cc1` [1 (j), 3-[1-[6-(4-methoxyphenyl)-n-hexyl]oxy-4-(4-dimethylaminocarbonylbutanamido)benzen-2-yl]propionic acid] came in with an IC50 on human PMNL LTB4 receptor of 200 nM.

On human PMNL LTB4 receptor, `COc1ccc(/C=C/CCCCOc2ccc(CCCCC(=O)N(C)C)cc2CCC(=O)O)cc1` [Example 18, 3-[1-[6-(4-methoxyphenyl)hex-5E-enyl]oxy-4-(4-dimethylaminocarbonylbutyl)benzen-2-yl]propionic acid] returned an IC50 of 25 nM.

Regarding `COc1ccc(/C=C/CCCCOc2ccc(NS(=O)(=O)Cc3ccccc3)cc2CCC(=O)O)cc1` [6 (c), 3-[1-[6-(4-methoxyphenyl)hex-5E-enyl]oxy-4-benzylsulfonylaminobenzen-2-yl]propionic acid], the IC50 at human PMNL LTB4 receptor was found to be 200 nM.

Compound `COc1ccc(/C=C/CCCCOc2ccc(N3C(=O)c4ccccc4C3=O)cc2CCC(=O)O)cc1` [Example 11, 3-[1-[6-(4-methoxyphenyl)hex-5E-enyl]oxy-4-phthalimidobenzen-2-yl]propionicacid] came in with an IC50 at human PMNL LTB4 receptor of 45 nM.

`COc1ccc(/C=C/CCCCOc2ccc(NC(=O)c3cccc(C(=O)O)c3)cc2CCC(=O)O)cc1` [2 (b), 3-[1-[6-(4-methoxyphenyl)hex-5E-enyl]oxy-4-(3-carboxylbenzamido)benzen-2-yl]propionic acid]: the IC50 was 20 nM on human PMNL LTB4 receptor and 7400 nM with Human PMNLs.
